Consider one molecule from ChEMBL document CHEMBL4680201, “Design, synthesis, and pharmacological evaluation of 4- or 6-phenyl-pyrimidine derivatives as novel and selective Janus kinase 3 inhibitors” (Eur J Med Chem, 2020).

Calls of active or inactive are those of the source. The calls are words filed in the database; no cut-off is given here.

The nature of data set [1]: Cytotoxicity against IL-4-treated mouse T cells assessed as reduction in cell viability at 10 uM measured after 72 hrs by MTS assay. The data set is classed as cell-based.
Data set [2] concerns Mus musculus. Put plainly: Immunosuppressive activity in Balb/c mouse model of oxazolone-induced delayed type hypersensitivity assessed as reduction in neutrophil leukocyte infiltration at 30 mg/kg, po measured after 7 days by H and E staining based histopathological analysis. Type of data set: functional, organism-based. The conditions noted are these: time 7.0 day.
Data set [3] in a line: AUC (0 to infinity) in ICR mouse at 10 mg/kg, iv administered as single dose by LC-MS/MS analysis. The data set is classed as ADME, organism-based. The conditions noted are these: in vivo. Details: route intravenous, time infinity, dose 10 mg/kg.
Data set [4] concerns the target ERBB4 (Receptor tyrosine-protein kinase erbB-4) (Homo sapiens, UniProt Q15303). Put plainly: Inhibition of recombinant human N-terminal GST-tagged ERBB4 catalytic domain (708 to 993 residues) expressed in baculovirus expression system at 100 nM using tyrosine-1 peptide as substrate incubated for 60 mins in presence of ATP by Z'-LYTE assay relative to control. The conditions noted are these: probe tyrosine-1 peptide.

Data set [5] in a line: Toxicity in Balb/c mouse model of oxazolone-induced delayed type hypersensitivity assessed as change in body weight up to 30 mg/kg, po. The data set is classed as organism-based. The conditions noted are these: in vivo.
Data set [6] can be described thus: AUC (0 to t) in ICR mouse at 30 mg/kg, po administered as single dose via gavage by LC-MS/MS analysis. Type of data set: ADME, organism-based. The conditions noted are these: in vivo. The arrangement: dose 30 mg/kg.
Data set [7] deals with T1, ITK (Tyrosine-protein kinase ITK/TSK) (Homo sapiens, UniProt Q08881).
T1 sequence (Q08881 whole entry): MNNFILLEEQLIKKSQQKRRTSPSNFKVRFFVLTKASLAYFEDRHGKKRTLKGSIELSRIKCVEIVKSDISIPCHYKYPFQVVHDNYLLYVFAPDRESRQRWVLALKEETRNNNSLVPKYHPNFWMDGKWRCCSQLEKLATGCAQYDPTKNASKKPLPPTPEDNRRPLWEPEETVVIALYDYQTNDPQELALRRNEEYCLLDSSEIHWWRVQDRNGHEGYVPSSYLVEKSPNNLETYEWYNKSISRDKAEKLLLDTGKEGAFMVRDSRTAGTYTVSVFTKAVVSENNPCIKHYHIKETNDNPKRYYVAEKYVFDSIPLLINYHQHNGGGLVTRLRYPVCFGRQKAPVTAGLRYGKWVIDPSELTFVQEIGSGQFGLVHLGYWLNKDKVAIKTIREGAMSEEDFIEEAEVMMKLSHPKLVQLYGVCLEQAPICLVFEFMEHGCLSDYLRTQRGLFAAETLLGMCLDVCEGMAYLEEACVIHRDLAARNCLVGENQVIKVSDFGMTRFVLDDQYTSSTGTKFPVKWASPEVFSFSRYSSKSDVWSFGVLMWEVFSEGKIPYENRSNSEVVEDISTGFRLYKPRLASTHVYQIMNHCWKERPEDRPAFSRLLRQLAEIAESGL
Description: Inhibition of recombinant human GST-tagged full length ITK expressed in baculovirus expression system at 100 nM using Tyr01 peptide as substrate incubated for 1 hr by Z'lyte assay relative to control. The conditions noted are these: probe Tyr01 peptide.

The target in data set [8] is T2, Tyrosine-protein kinase JAK3 (Homo sapiens, UniProt P52333).
T2 sequence (P52333 whole entry): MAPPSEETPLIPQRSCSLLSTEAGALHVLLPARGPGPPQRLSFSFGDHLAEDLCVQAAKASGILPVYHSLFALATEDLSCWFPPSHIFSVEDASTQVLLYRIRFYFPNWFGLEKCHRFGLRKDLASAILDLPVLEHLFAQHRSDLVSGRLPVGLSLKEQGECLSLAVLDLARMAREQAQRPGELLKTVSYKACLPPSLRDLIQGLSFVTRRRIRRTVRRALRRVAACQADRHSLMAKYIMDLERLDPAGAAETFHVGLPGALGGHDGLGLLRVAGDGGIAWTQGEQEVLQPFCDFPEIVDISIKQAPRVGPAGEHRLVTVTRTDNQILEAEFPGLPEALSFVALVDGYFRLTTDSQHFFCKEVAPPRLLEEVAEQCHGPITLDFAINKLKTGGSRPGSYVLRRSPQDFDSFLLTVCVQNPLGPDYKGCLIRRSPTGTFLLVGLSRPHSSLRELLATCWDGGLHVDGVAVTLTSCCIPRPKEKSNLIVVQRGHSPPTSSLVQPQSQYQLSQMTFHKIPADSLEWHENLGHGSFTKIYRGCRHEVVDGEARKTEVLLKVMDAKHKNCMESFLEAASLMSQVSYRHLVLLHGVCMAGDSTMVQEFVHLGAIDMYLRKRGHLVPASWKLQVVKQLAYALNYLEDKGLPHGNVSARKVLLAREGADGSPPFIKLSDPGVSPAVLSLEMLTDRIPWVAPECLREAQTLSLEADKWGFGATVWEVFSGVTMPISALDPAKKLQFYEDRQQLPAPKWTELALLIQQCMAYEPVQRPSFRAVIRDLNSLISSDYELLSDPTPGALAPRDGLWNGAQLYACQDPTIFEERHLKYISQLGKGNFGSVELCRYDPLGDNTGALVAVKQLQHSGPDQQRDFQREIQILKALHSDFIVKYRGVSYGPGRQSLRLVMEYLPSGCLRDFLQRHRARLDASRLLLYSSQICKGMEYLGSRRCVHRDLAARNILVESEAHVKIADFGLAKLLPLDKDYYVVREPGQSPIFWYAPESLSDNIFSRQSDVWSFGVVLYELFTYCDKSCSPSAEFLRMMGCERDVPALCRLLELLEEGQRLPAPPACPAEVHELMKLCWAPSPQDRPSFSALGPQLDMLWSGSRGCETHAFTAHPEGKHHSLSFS

Chain of ERBB4 (Receptor tyrosine-protein kinase erbB-4) (Q15303 whole entry, the tested form may be a part): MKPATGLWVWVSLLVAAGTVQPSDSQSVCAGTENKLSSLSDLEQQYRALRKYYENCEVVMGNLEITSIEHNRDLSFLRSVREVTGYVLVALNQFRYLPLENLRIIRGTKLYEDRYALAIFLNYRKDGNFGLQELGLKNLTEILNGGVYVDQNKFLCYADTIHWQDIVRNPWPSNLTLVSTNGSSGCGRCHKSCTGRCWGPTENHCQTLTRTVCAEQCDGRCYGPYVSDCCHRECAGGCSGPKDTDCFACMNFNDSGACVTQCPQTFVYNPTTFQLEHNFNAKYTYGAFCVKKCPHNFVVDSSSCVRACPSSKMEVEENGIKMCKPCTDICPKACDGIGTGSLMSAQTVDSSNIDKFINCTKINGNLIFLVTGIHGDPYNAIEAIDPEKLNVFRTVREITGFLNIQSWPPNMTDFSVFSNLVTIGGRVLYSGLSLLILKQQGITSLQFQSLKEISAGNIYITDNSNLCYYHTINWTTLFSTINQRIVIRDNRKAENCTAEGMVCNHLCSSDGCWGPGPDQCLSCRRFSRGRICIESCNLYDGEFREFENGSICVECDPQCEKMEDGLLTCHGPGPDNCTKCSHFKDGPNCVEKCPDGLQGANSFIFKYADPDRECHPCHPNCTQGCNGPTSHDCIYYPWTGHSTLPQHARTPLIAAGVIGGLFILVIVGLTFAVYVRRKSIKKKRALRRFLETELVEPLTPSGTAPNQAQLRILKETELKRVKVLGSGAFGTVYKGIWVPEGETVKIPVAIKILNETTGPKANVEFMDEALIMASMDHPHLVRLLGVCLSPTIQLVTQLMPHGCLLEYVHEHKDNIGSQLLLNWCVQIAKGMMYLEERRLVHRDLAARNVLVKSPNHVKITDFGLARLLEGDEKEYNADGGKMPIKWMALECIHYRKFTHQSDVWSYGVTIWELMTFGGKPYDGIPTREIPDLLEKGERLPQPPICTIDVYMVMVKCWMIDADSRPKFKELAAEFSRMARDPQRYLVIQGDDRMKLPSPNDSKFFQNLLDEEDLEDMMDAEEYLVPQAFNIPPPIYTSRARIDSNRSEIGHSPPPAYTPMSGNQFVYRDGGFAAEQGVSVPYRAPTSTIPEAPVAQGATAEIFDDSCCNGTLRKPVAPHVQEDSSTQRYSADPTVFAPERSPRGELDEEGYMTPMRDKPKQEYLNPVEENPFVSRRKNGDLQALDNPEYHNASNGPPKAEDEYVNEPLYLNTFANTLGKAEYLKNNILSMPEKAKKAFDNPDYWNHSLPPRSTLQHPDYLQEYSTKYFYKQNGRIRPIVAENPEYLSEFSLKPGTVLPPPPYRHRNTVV

On to `C=CC(=O)Nc1ccc(-c2ccnc(Nc3ccc(N4CCOCC4)cc3)n2)cc1`, for which the Activity result in data set [1] and in data set [5] was “Non-Toxic” each time. For the same molecule, in data set [2], the result was Active. For the same molecule, in data set [3], the AUC(0-inf) came out at 1270 ng·h/mL. In addition, the inhibition at 1 h, 0.1 µM in data set [4] was 8%; in data set [7], 2.3%. Further, the AUC(0-t) in data set [6] amounted to 889 ng·h/mL. The same molecule registered an IC50 in data set [8] of 1.7 nM.
